Series [1] is described as follows: Exploratory behavior in novel environment (Context B, open field test). In kind it is in vivo. As to conditions: all groups of mice (ATAC, AAV without FUS-BBBO, wild-type), 3 minutes. The protocol: (§1) Behavioral studies for fear conditioning were performed in sound-attenuated fear conditioning chambers (30×25×25 cm, Med Associates). Animals were trained and tested for context fear in Context A, which comprised a staggered wire grid floor, white light, 5% acetic acid for scent and no background noise. Locomotor testing was performed in Context B, which was differentiated from Context A by chamber shape, floor, illumination, odor, background noise and room location. Animal activity was recorded and quantified using Video Freeze software (Med Associates). For cued training, the tone was 80 dB and 30s.
Between 30 and 45 minutes after the context fear test, mice were transported to another room, placed in Context B and allowed to explore the chamber for 3 minutes while their activity was recorded. Due to automated data acquisition and evaluation, no blinding was necessary.
One day after fear conditioning, the mice were placed in a novel environment (Context B in FIG. 5, panel a), which they were allowed to explore freely for 3 minutes. The exploratory behavior of all groups of mice was likewise unaffected by CNO administration (FIG. 5, panel e-g).

Series [2] concerns the target T1, hM3Dq (Homo sapiens, UniProt P20309, A239G/Y149C). Put plainly: c-Fos activation in dorsal CA3 of hippocampus after CNO in mice expressing hM3Dq-mCherry (ATAC). In kind it is in vivo. Details: host or cells: mouse (C57BL6J) hippocampal excitatory neurons transduced in vivo with AAV9. To be noted: CNO 1 mg/kg IP, 2.5 h, 22 weeks after FUS-BBBO, n=6. The protocol: C57BL6J male mice of 13 weeks of age underwent FUS-BBBO to administer AAV9 carrying hM3Dq-mCherry into the hippocampus. Subsequently, mice were housed singly to reduce background C-fos expression. After 22 weeks of expression, mice received an IP injection of 1 mg/kg CNO in sterile saline, and were returned to home cages. After 150 minutes, mice were anesthetized using Ketamine/Xylazine solution (80 mg/kg and 10 mg/kg, respectively, in PBS) and perfused with a cold PBS/Heparin (10 U/ml), and immediately afterwards with 10% Neutral Buffered Formalin (NBF). Their brains were extracted and post-fixed in 10% NBF for at least 24 hours. Brain sections (50 μm) were obtained using a VF-300 compresstome (Precisionary Instruments). […]
(§2) For activation of hippocampus, the histological evaluation was performed by an observer blinded to the identity (hM3Dq positive, or negative) of granular layer nuclei in dCA3. The expression status of the neurons was determined after the scoring of c-Fos positivity. The activation of TH neurons was evaluated by an observer blinded to the presence of FUS-BBBO targeting at a given site. […] A three-dimensional reference atlas[82] was used to choose the appropriate regions and brain sections for each mouse and contralateral and ipsilateral controls to ascertain consistency in choice of analyzed sections. […]

Series [3] can be described thus: Cued conditioning acquisition (freezing during third tone of training). In kind it is in vivo. To be noted: ATAC, wild-type and AAV without FUS-BBBO mice. On the procedure:
as §1
Mice were injected with CNO (10 mg/kg, IP) or saline (IP), and after 40-60 minutes underwent context and cued fear conditioning in Context A. This timeframe was chosen to allow CNO to reach its pharmacokinetic peak[88]. A 3-minute initial baseline period was followed by 3×30-s presentations of a tone co-terminated with a 2-s foot shock (0.7 mA), with inter-trial interval of 60 s. After the trials, the mice remained in the context for an additional 60 s, after which they were transported back into the vivarium. After 24 h, mice were placed in Context A to record context fear for the duration of training (8 min. and 40 s). […]

Series [4] has as its target T1, hM3Dq. Nature of the series: Intersectional ATAC: c-Fos activation of TH-positive neurons in SNc/VTA of TH-CRE mice. Further details: expressed in transfected cells; host or cells: TH-positive neurons of SNc/VTA in TH-CRE transgenic mice, transduced in vivo with AAV9. To be noted: CNO 1 mg/kg IP, 2 h; 9 weeks expression; n=5 mice. In kind it is in vivo, TH-CRE transgenic mice. On the procedure: After FUS-BBBO, the mice were imaged again using the same FLASH sequence to confirm opening of the BBB and appropriate targeting. Immediately afterwards, mice were placed in the home cage for recovery. The TH-CRE animals, aged 18 weeks, were subjected to FUS-BBBO using the same protocol, and using the same dose of AAV9, as for C57BL6J mice. All TH-CRE animals were females.
as §2, with “site. TH-CRE mice expressed hM3Dq for 9 weeks after FUS-BBBO, and then were given 1 mg/kg CNO. After 2 h, they were anesthetized with ketamine/xylazine (80/10 mg/kg in PBS) and perfused using cold heparine/PBS (10 u) and then 10% NBF.” for “site.”

The next series deals with T2, hM4Di (Homo sapiens, UniProt P08173, A203G/Y113C).
T2 construct: host or cells: mouse (C57BL6J) hippocampal excitatory neurons transduced in vivo with AAV9
T2 sequence (P08173 1-479 Y113C/A203G): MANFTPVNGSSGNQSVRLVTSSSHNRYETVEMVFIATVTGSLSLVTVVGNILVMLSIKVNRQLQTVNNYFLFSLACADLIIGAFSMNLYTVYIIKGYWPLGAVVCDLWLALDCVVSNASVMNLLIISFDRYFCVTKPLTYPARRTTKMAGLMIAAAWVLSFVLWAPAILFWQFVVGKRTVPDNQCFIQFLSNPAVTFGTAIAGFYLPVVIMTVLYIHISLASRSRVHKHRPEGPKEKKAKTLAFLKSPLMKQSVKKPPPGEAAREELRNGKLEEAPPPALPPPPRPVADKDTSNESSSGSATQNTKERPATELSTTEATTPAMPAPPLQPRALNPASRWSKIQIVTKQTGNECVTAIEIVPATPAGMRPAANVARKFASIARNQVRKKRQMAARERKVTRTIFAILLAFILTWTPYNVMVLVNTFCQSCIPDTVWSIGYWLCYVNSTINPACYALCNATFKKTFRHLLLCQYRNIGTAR
Nature of the series: Context fear conditioning and recall (freezing in Context A) with hM4Di targeted to ventral and dorsal hippocampus. Type of series: in vivo, mice. The protocol: as §1
Mice were injected with CNO (10 mg/kg, IP) or saline (IP), and after 40-60 minutes underwent context and cued fear conditioning in Context A. This timeframe was chosen to allow CNO to reach its pharmacokinetic peak[88]. A 3-minute initial baseline period was followed by 3×30-s presentations of a tone co-terminated with a 2-s foot shock (0.7 mA), with inter-trial interval of 60 s. After the trials, the mice remained in the context for an additional 60 s, after which they were transported back into the vivarium. After 24 h, mice were placed in Context A to record context fear for the duration of training (8 min. and 40 s).
Mice were recorded using automated near-infrared video tracking in the fear conditioning chamber using VideoFreeze software. Mouse motion was measured using the activity score, from a video recording at 30 frames/s, with the motion threshold set at 18 activity units (standard value set in software). Freezing was defined as an activity score below 18 units for at least 1 s. Average freezing in the context test was scored over the whole trial. Due to automated data acquisition and evaluation, no blinding was necessary.
mice were excluded from statistical analysis if their histologically determined DREADD expression was below 30% of cell bodies in dorsal CA3 region of the hippocampus. This threshold was chosen based on previous studies showing that behavioral effects generally require modulation of at least 30% of the neurons in a targeted region[89, 90] and dorsal CA3 being the most robustly transfected hippocampus region. The resulting analyzed groups had identical levels of expression (55.1% for Saline and 60.5% for CNO groups, p=0.26, heteroscedastic, two-tailed, t-test). […] Variability in gene expression may have been due to variability in intravenous injections of virus during the FUS-BBBO procedure, since we found no difference between these mice in T1 MRI signal enhancement post FUS-BBBO (FIG. 15, panel b).
To assess the ability of ATAC to inhibit targeted neurons, and to test the functionality of this technology in a behavioral paradigm, FUS-BBBO was used to target inhibitory DREADDs (hM4Di) to ventral and dorsal hippocampus (FIG. 5, panel a), and the impact of CNO administration on the formation of contextual fear memories was assessed. This well-established behavioral paradigm has been used in studies of anxiety, phobias, PTSD and fear circuitry[99]° [100]. Fear conditioning has also served as a testing ground for other novel neuromodulatory techniques. Since the hippocampus plays an essential role in memory formation, it is hypothesized that inhibiting it noninvasively using the ATAC strategy would reduce the ability of mice to form fear memories.
Two groups of control mice were either completely untreated or received intravenous virus without FUS-BBBO. After 6-8 weeks, the mice underwent a fear conditioning protocol (FIG. 5, panel a). In this protocol, the mice are placed in a unique environment (defined by chamber shape, lighting, smell and sound; Context A in FIG. 5, panel a) while receiving three electric foot shocks, causing them to associate this environment with the noxious stimulus in a process known as context fear conditioning. […]

T1 sequence (P20309 whole entry Y149C/A239G, the tested form may be a part): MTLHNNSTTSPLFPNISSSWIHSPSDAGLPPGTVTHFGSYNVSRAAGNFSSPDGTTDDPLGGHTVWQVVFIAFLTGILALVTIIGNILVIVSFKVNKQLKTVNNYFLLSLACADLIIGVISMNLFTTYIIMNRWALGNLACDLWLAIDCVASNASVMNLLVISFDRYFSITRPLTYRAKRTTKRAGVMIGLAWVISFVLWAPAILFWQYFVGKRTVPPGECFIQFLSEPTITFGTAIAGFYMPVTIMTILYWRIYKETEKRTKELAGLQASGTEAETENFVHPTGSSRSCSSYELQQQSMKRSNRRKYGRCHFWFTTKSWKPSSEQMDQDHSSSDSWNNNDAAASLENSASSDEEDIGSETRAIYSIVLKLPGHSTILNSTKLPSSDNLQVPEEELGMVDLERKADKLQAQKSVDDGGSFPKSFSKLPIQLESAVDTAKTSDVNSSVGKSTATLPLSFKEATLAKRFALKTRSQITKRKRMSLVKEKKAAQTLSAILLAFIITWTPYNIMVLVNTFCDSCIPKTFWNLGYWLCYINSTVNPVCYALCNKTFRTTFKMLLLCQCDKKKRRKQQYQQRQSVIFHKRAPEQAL

In the case of `C[N+]1([O-])CCN(C2=Nc3cc(Cl)ccc3Nc3ccccc32)CC1` [CNO, clozapine-N-oxide], the exploratory behavior entry in series [1] is “unaffected”. Also, the “likelihood of c-Fos staining, hM3Dq-positive cells versus cells not expressing hM3Dq” value at hM3Dq [2] was found to be 5.8 times. The “cued freezing at the end of the training session” value in series [3] is listed as “unaffected”. In addition, the “increase in activation (c-Fos) among TH-positive neurons, ATAC-targeted side versus contralateral” value on hM3Dq [4] is recorded as 7.3 fold. Besides, on hM4Di (ATAC mice (hM4Di), CNO 10 mg/kg IP 40-60 min before conditioning, recall 24 h later, saline 53.2%), the “time spent freezing in fear recall context” value stood at 21.8%. The “context fear (freezing) without excluding mice with expression below 30%” value at hM4Di (ATAC mice treated with CNO, all mice, saline 53.2%) worked out at 34%. The “reduction in fear memory versus saline” value at hM4Di (ATAC mice, CNO before conditioning, n=13 and 7) is given as “more than 2 fold”. Moreover, the “context fear relative to untreated controls” value is “did not result in a reduction in context fear” at hM4Di (CNO treatment alone in wild-type mice) and “did not result in a reduction in context fear” on hM4Di (systemic AAV9 injection without FUS-BBBO, CNO). For the same molecule, on hM4Di (mice treated with CNO, all mice, n=11), the “correlation (r) of DREADD expression in dorsal CA3 with formation of context fear memories” value stood at 0.62. The “reduction in fear memory formation” value at hM4Di (single injection of CNO several weeks after FUS-BBBO) is on record as 2.4 fold.
